Test system: HIV-1 from patient plasma samples
Assay: PHENOSENSE HIV phenotypic susceptibility assay, fold change in IC50 of patient virus versus NL4-3 reference virus
Assay type: cell-based
Conditions: Patient IC50/reference (NL4-3) IC50; for Fold change (FC) in IC50, 10th percentile: 10th percentile of distribution over 1515 patient samples, hypersusceptibility cut-off; for Fold change (FC) in IC50, 90th percentile: 90th percentile of distribution over 1515 patient samples; for Fold change (FC) in IC50, mean: mean over 1515 patient samples without resistance-selected mutations; for Fold change (FC) in IC50, median: median over 1515 patient samples without resistance-selected mutations
Method: In a preferred embodiment, the phenotypic analysis is performed using PHENOSENSE™ (ViroLogic Inc., South San Francisco, Calif.). See Petropoulos et al., 2000, Antimicrob. Agents Chemother. 44:920-928; U.S. Pat. Nos. 5,837,464 and 6,242,187. PHENOSENSE™ is a phenotypic assay that achieves the benefits of phenotypic testing and overcomes the drawbacks of previous assays. Because the assay has been automated, PHENOSENSE™ offers higher throughput under controlled conditions. The result is an assay that accurately defines the susceptibility profile of a patient's HIV isolates to all currently available antiretroviral drugs, and delivers results directly to the physician within about 10 to about 15 days of sample receipt. PHENOSENSE™ is accurate and can obtain results with only one round of viral replication, thereby avoiding selection of subpopulations of virus. The results are quantitative, measuring varying degrees of drug susceptibility, and sensitive—the test can be performed on blood specimens with a viral load of about 500 copies/mL and can detect minority populations of some drug-resistant virus at concentrations of 10% or less of total viral population. Furthermore, the results are reproducible and can vary by less than about 1.4-2.5 fold, depending on the drug, in about 95% of the assays performed.
A resistance test vector (“RTV”) can then be constructed by incorporating the amplified viral gene sequences into a replication defective viral vector by using any method known in the art of incorporating gene sequences into a vector. In one embodiment, restrictions enzymes and conventional cloning methods are used. See Sambrook et al., 2001, Molecular Cloning: A Laboratory Manual, Cold Spring Harbor Laboratory, 3rd ed., NY; and Ausubel et al., 1989, Current Protocols in Molecular Biology, Greene Publishing Associates and Wiley Interscience, NY. In a preferred embodiment, ApaI and PinAI restriction enzymes are used. Preferably, the replication defective viral vector is the indicator gene viral vector (“IGVV”). In a preferred embodiment, the viral vector contains a means for detecting replication of the RTV. Preferably, the viral vector contains a luciferase expression cassette.
The assay can be performed by first co-transfecting host cells with RTV DNA and a plasmid that expresses the envelope proteins of another retrovirus, for example, amphotropic murine leukemia virus (MLV). Following transfection, virus particles can be harvested and used to infect fresh target cells. The completion of a single round of viral replication can be detected by the means for detecting replication contained in the vector. In a preferred embodiment, the completion of a single round of viral replication results in the production of luciferase. Serial concentrations of anti-viral agents can be added at either the transfection step or the infection step.
Susceptibility to the anti-viral agent can be measured by comparing the replication of the vector in the presence and absence of the anti-viral agent. For example, susceptibility to the anti-viral agent can be measured by comparing the luciferase activity in the presence and absence of the anti-viral agent. Susceptible viruses would produce low levels of luciferase activity in the presence of anti-viral agents, whereas viruses with reduced susceptibility would produce higher levels of luciferase activity.
In order to determine the relationship between an HIV-1 strain's protease sequence and its susceptibility to treatment with a protease inhibitor, a data set of patient plasma samples was analyzed genotypically as well as phenotypically. The phenotypic assay was conducted using the PHENOSENSE™ (Virologic, South San Francisco, Calif.) HIV assay (Petropoulos et al., 2000, Antimicrob. Agents Chemother. 44:920-928; U.S. Pat. Nos. 5,837,464 and 6,242,187). Plasma samples were collected from HIV-1-infected patients. […]

## CC(C)CN(C[C@@H](O)[C@H](Cc1ccccc1)NC(=O)O[C@H]1CCOC1)S(=O)(=O)c1ccc(N)cc1 [APV, amprenavir]
  Fold change (FC) in IC50, 10th percentile: 0.35
  Fold change (FC) in IC50, 90th percentile: 1.32
  Fold change (FC) in IC50, mean: 0.69
  Fold change (FC) in IC50, median: 0.71

## CC(C)(C)NC(=O)[C@@H]1CN(Cc2cccnc2)CCN1C[C@@H](O)C[C@@H](Cc1ccccc1)C(=O)N[C@H]1c2ccccc2C[C@H]1O [IDV, indinavir]
  Fold change (FC) in IC50, 10th percentile: 0.44
  Fold change (FC) in IC50, 90th percentile: 1.35
  Fold change (FC) in IC50, mean: 0.78
  Fold change (FC) in IC50, median: 0.78

## Cc1cccc(C)c1OCC(=O)N[C@@H](Cc1ccccc1)[C@@H](O)C[C@H](Cc1ccccc1)NC(=O)[C@H](C(C)C)N1CCCNC1=O [LPV, lopinavir]
  Fold change (FC) in IC50, 10th percentile: 0.40
  Fold change (FC) in IC50, 90th percentile: 1.15
  Fold change (FC) in IC50, mean: 0.68
  Fold change (FC) in IC50, median: 0.69

## Cc1c(O)cccc1C(=O)N[C@@H](CSc1ccccc1)[C@H](O)CN1C[C@H]2CCCC[C@H]2C[C@H]1C(=O)NC(C)(C)C [NFV, nelfinavir]
  Fold change (FC) in IC50, 10th percentile: 0.54
  Fold change (FC) in IC50, 90th percentile: 2.09
  Fold change (FC) in IC50, mean: 1.05
  Fold change (FC) in IC50, median: 1.05

## CC(C)c1nc(CN(C)C(=O)N[C@H](C(=O)N[C@@H](Cc2ccccc2)C[C@H](O)[C@H](Cc2ccccc2)NC(=O)OCc2cncs2)C(C)C)cs1 [RTV, ritonavir]
  Fold change (FC) in IC50, 10th percentile: 0.45
  Fold change (FC) in IC50, 90th percentile: 1.55
  Fold change (FC) in IC50, mean: 0.82
  Fold change (FC) in IC50, median: 0.81

## CC(C)(C)NC(=O)[C@@H]1C[C@@H]2CCCC[C@@H]2CN1C[C@@H](O)[C@H](Cc1ccccc1)NC(=O)[C@H](CC(N)=O)NC(=O)c1ccc2ccccc2n1 [SQV, saquinavir]
  Fold change (FC) in IC50, 10th percentile: 0.44
  Fold change (FC) in IC50, 90th percentile: 1.12
  Fold change (FC) in IC50, mean: 0.70
  Fold change (FC) in IC50, median: 0.71

— patent US7553618B2, “Method for determining human immunodeficiciency virus type 1 (HIV-1) hypersusceptibility to the protease inhibitor amprenavir” (Monogram Biosciences, Inc., priority 2002, dated 2009)
